Experimental data as given in ChEMBL document CHEMBL1201862, “PubChem BioAssay data set” (2004).
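Compound exposure: 48 hours, 5 concentrations, 96-well plates. Here, GI50 denotes the concentration required for 50% inhibition of growth.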 Activity calls are given as the source filed them. No stated cut-off is given here; in the data, active = GI50 up to about 1.1 µM and inactive = higher.

Tests used:
Assay in all cases: NCI-60 cell line screen, 48 h
RXF 631 = tested on: RXF 631
HOP-18 = tested on: HOP-18
KM-20L2 = tested on: KM-20L2
DMS-114 = tested on: DMS-114
SNB-78 = tested on: SNB-78
XF498 = tested on: XF498
DMS-273 = tested on: DMS-273
DLD-1 = tested on: DLD-1
M19-MEL = tested on: M19-MEL

Compound: O=C1c2cccc(NCCNCCO)c2C(=O)c2cccc(NCCNCCO)c21
- GI50 (RXF 631): 3.13 µM (inactive)
- GI50 (HOP-18): 2.15 µM (inactive)
- GI50 (KM-20L2): 1.18 µM (inactive)
- GI50 (DMS-114): 0.368 µM (active)
- GI50 (SNB-78): 1.52 µM (inactive)
- GI50 (XF498): 0.556 µM (active)
- GI50 (DMS-273): 2.91 µM (inactive)
- GI50 (DLD-1): 3.18 µM (inactive)

Compound: CN(C)CCCn1c2c3ccccc3ccc2c2oc(=O)c3ccccc3c21
- GI50 (HOP-18): 16.6 µM (inactive)
- GI50 (KM-20L2): 1.39 µM (inactive)
- GI50 (M19-MEL): 3.13 µM (inactive)
- GI50 (DMS-114): 1.77 µM (inactive)
- GI50 (SNB-78): 13.6 µM (inactive)
- GI50 (XF498): 3.85 µM (inactive)
- GI50 (DMS-273): 1.49 µM (inactive)
- GI50 (DLD-1): 1.47 µM (inactive)

Compound: c1ccc(C2OCCO2)c(OCCOc2cc(OCCOc3ccccc3C3OCCO3)c(OCCOc3ccccc3C3OCCO3)cc2OCCOc2ccccc2C2OCCO2)c1
- GI50 (HOP-18): > 100 µM (inactive)
- GI50 (KM-20L2): > 100 µM (inactive)
- GI50 (M19-MEL): > 100 µM (inactive)
- GI50 (DMS-114): 11.8 µM (inactive)
- GI50 (SNB-78): 5.46 µM (inactive)
- GI50 (DMS-273): 15.3 µM (inactive)
- GI50 (DLD-1): > 100 µM (inactive)

Compound: NC1=NN(c2ccccc2)C(=O)C1C(=O)C(=O)Nc1ccccc1 (configuration not stated)
- GI50 (HOP-18): > 100 µM (inactive)
- GI50 (KM-20L2): > 100 µM (inactive)
- GI50 (M19-MEL): > 100 µM (inactive)
- GI50 (DMS-114): > 100 µM (inactive)
- GI50 (SNB-78): > 100 µM (inactive)
- GI50 (XF498): > 100 µM (inactive)
- GI50 (DMS-273): > 100 µM (inactive)
- GI50 (DLD-1): > 100 µM (inactive)

Compound: ClC(Cl)[Si]12OCCN(CCO1)CCO2
- GI50 (RXF 631): > 100 µM (inactive)
- GI50 (HOP-18): > 100 µM (inactive)
- GI50 (DMS-114): > 100 µM (inactive)
- GI50 (SNB-78): > 100 µM (inactive)
- GI50 (DMS-273): > 100 µM (inactive)
- GI50 (DLD-1): > 100 µM (inactive)

Compound: Cc1cc2ncn(-c3nc4ccccc4nc3C(C#N)S(C)(=O)=O)c2cc1C (configuration not stated)
- GI50 (KM-20L2): > 100 µM (inactive)
- GI50 (M19-MEL): > 100 µM (inactive)
- GI50 (DMS-114): > 100 µM (inactive)
- GI50 (SNB-78): > 100 µM (inactive)
- GI50 (XF498): > 100 µM (inactive)
- GI50 (DMS-273): > 100 µM (inactive)
- GI50 (DLD-1): > 100 µM (inactive)

Compound: O=C(O)/C(=C/c1c(O)ccc2ccccc12)c1csc(-c2nc(/C(=C\c3c(O)ccc4ccccc34)C(=O)O)cs2)n1
- GI50 (KM-20L2): 19.4 µM (inactive)
- GI50 (M19-MEL): 6.17 µM (inactive)
- GI50 (DMS-114): 10 µM (inactive)
- GI50 (SNB-78): 13.6 µM (inactive)
- GI50 (DLD-1): 12 µM (inactive)

Compound: O=C1/C(=C\c2ccccc2)CN(C(=O)CCN2CCCCC2)C/C1=C/c1ccccc1
- GI50 (RXF 631): 1.47 µM (inactive)
- GI50 (HOP-18): 3.03 µM (inactive)
- GI50 (KM-20L2): 0.811 µM (active)
- GI50 (M19-MEL): 0.658 µM (active)
- GI50 (DMS-114): 1.23 µM (inactive)
- GI50 (SNB-78): 2.54 µM (inactive)
- GI50 (XF498): 1.73 µM (inactive)
- GI50 (DMS-273): 1.44 µM (inactive)
- GI50 (DLD-1): 1.19 µM (inactive)

Compound: CCN(CC)CCCCC1CCN(CC(=O)N2c3cc(Cl)ccc3NC(=O)CC2C)CC1 (configuration not stated)
- GI50 (HOP-18): > 100 µM (inactive)
- GI50 (KM-20L2): 40.9 µM (inactive)
- GI50 (M19-MEL): > 100 µM (inactive)
- GI50 (DMS-273): > 100 µM (inactive)
- GI50 (DLD-1): > 100 µM (inactive)

Compound: CCN(C1=CC(=O)NC2CCCCN12)c1ccccc1 (configuration not stated)
- GI50 (RXF 631): > 100 µM (inactive)
- GI50 (HOP-18): > 100 µM (inactive)
- GI50 (KM-20L2): > 100 µM (inactive)
- GI50 (M19-MEL): > 100 µM (inactive)
- GI50 (DMS-114): > 100 µM (inactive)
- GI50 (SNB-78): > 100 µM (inactive)
- GI50 (XF498): > 100 µM (inactive)
- GI50 (DMS-273): > 100 µM (inactive)
- GI50 (DLD-1): > 100 µM (inactive)

Compound: O=c1cc[nH]c2ccc3nn[nH]c3c12
- GI50 (RXF 631): > 100 µM (inactive)
- GI50 (HOP-18): > 100 µM (inactive)
- GI50 (KM-20L2): > 100 µM (inactive)
- GI50 (M19-MEL): > 100 µM (inactive)
- GI50 (DMS-114): > 100 µM (inactive)
- GI50 (SNB-78): > 100 µM (inactive)
- GI50 (XF498): > 100 µM (inactive)
- GI50 (DMS-273): > 100 µM (inactive)
- GI50 (DLD-1): > 100 µM (inactive)

Compound: COc1ccc(CC#N)c(OCc2ccccc2)c1
- GI50 (HOP-18): 14.2 µM (inactive)
- GI50 (KM-20L2): 31.3 µM (inactive)
- GI50 (M19-MEL): 29.3 µM (inactive)
- GI50 (DMS-114): 30.8 µM (inactive)
- GI50 (DMS-273): 49.4 µM (inactive)
- GI50 (DLD-1): 28.1 µM (inactive)

Compound: CC1=C(C(=O)Nc2c(C)cccc2C)C(c2ccccc2Cl)C(C(=O)Nc2c(C)cccc2C)=C(C)N1
- GI50 (KM-20L2): > 100 µM (inactive)
- GI50 (M19-MEL): > 100 µM (inactive)
- GI50 (DMS-114): > 100 µM (inactive)
- GI50 (SNB-78): > 100 µM (inactive)
- GI50 (XF498): > 100 µM (inactive)
- GI50 (DMS-273): > 100 µM (inactive)
- GI50 (DLD-1): > 100 µM (inactive)

Compound: Cc1ccc(C(=O)c2nnc(C(=O)c3ccc(C)cc3)nn2)cc1
- GI50 (HOP-18): 33.4 µM (inactive)
- GI50 (KM-20L2): 65.9 µM (inactive)
- GI50 (M19-MEL): 26.1 µM (inactive)
- GI50 (SNB-78): > 100 µM (inactive)
- GI50 (DMS-273): 39.4 µM (inactive)
- GI50 (DLD-1): 43.2 µM (inactive)

Compound: COc1ccc(NC(=O)C(=O)C2CNC(=O)NC2=O)c(OC)c1 (configuration not stated)
- GI50 (HOP-18): > 100 µM (inactive)
- GI50 (KM-20L2): > 100 µM (inactive)
- GI50 (DMS-114): > 100 µM (inactive)
- GI50 (SNB-78): > 100 µM (inactive)
- GI50 (XF498): > 100 µM (inactive)
- GI50 (DMS-273): > 100 µM (inactive)
- GI50 (DLD-1): > 100 µM (inactive)

Compound: C(=N\CC/N=C/c1cccc2ccccc12)/c1cccc2ccccc12
- GI50 (HOP-18): > 100 µM (inactive)
- GI50 (KM-20L2): > 100 µM (inactive)
- GI50 (M19-MEL): > 100 µM (inactive)
- GI50 (DMS-114): > 100 µM (inactive)
- GI50 (SNB-78): > 100 µM (inactive)
- GI50 (XF498): > 100 µM (inactive)
- GI50 (DMS-273): > 100 µM (inactive)
- GI50 (DLD-1): > 100 µM (inactive)

Compound: CCN(CC)CCNC(=O)c1ccc([N+](=O)[O-])cc1OC
- GI50 (KM-20L2): > 100 µM (inactive)
- GI50 (M19-MEL): > 100 µM (inactive)
- GI50 (DMS-114): > 100 µM (inactive)
- GI50 (SNB-78): > 100 µM (inactive)
- GI50 (DMS-273): > 100 µM (inactive)
- GI50 (DLD-1): > 100 µM (inactive)

Compound: O=C1c2cccc(NCCCNCCO)c2C(=O)c2cccc(NCCCNCCO)c21
- GI50 (KM-20L2): 2.75 µM (inactive)
- GI50 (SNB-78): 3.46 µM (inactive)
- GI50 (DMS-273): 2.31 µM (inactive)
- GI50 (DLD-1): 2.34 µM (inactive)

Compound: O=C1NC(=S)NC(=O)C1=C(O)Nc1ccccc1
- GI50 (HOP-18): 42.4 µM (inactive)
- GI50 (KM-20L2): 44.9 µM (inactive)
- GI50 (M19-MEL): 37.2 µM (inactive)
- GI50 (DMS-114): 25.8 µM (inactive)
- GI50 (SNB-78): 44.1 µM (inactive)
- GI50 (DMS-273): 28.7 µM (inactive)
- GI50 (DLD-1): 36.6 µM (inactive)

Compound: CCOc1ccccc1NC(=O)C1=C(C)NC(C)=C(C(=O)Nc2ccccc2OCC)C1c1ccc([N+](=O)[O-])cc1
- GI50 (RXF 631): > 100 µM (inactive)
- GI50 (HOP-18): > 100 µM (inactive)
- GI50 (KM-20L2): > 100 µM (inactive)
- GI50 (M19-MEL): > 100 µM (inactive)
- GI50 (DMS-114): 65.9 µM (inactive)
- GI50 (SNB-78): > 100 µM (inactive)
- GI50 (DMS-273): 71.4 µM (inactive)
- GI50 (DLD-1): > 100 µM (inactive)

Compound: COc1c(OC(C)=O)ccc(/C=C2\N=C(C)OC2=O)c1[N+](=O)[O-]
- GI50 (RXF 631): > 100 µM (inactive)
- GI50 (HOP-18): > 100 µM (inactive)
- GI50 (KM-20L2): > 100 µM (inactive)
- GI50 (M19-MEL): > 100 µM (inactive)
- GI50 (SNB-78): > 100 µM (inactive)
- GI50 (DMS-273): > 100 µM (inactive)
- GI50 (DLD-1): > 100 µM (inactive)

Compound: CC(=O)C1=CCC2c3[nH]c4ccccc4c3CCN2C1 (configuration not stated)
- GI50 (RXF 631): 45.4 µM (inactive)
- GI50 (HOP-18): > 100 µM (inactive)
- GI50 (KM-20L2): 21 µM (inactive)
- GI50 (M19-MEL): > 100 µM (inactive)
- GI50 (SNB-78): 32.1 µM (inactive)
- GI50 (XF498): 62.5 µM (inactive)
- GI50 (DMS-273): 34.5 µM (inactive)
- GI50 (DLD-1): 70.3 µM (inactive)

Compound: COc1ccc2[nH]c(=O)cc(C)c2c1[N+](=O)[O-]
- GI50 (RXF 631): > 100 µM (inactive)
- GI50 (KM-20L2): > 100 µM (inactive)
- GI50 (M19-MEL): > 100 µM (inactive)
- GI50 (DMS-114): > 100 µM (inactive)
- GI50 (SNB-78): > 100 µM (inactive)
- GI50 (XF498): > 100 µM (inactive)
- GI50 (DMS-273): > 100 µM (inactive)
- GI50 (DLD-1): 84.1 µM (inactive)

Compound: Cc1ccc(NC(=O)C(=O)CC(=O)c2c(C)[n+]([O-])c3ccccc3[n+]2[O-])cc1C
- GI50 (HOP-18): 48.9 µM (inactive)
- GI50 (KM-20L2): 91.8 µM (inactive)
- GI50 (M19-MEL): 91.2 µM (inactive)
- GI50 (SNB-78): > 100 µM (inactive)
- GI50 (DMS-273): > 100 µM (inactive)

Compound: C=CCC1OC(C)(C)Oc2ccc(OCOCCOC)cc21 (configuration not stated)
- GI50 (DMS-114): > 100 µM (inactive)

Compound: C[C@H](OCc1ccccc1)C(=O)N1CCS(=O)(=O)N2CCC[C@@H]2C1=O
- GI50 (RXF 631): > 100 µM (inactive)
- GI50 (HOP-18): > 100 µM (inactive)
- GI50 (KM-20L2): > 100 µM (inactive)
- GI50 (M19-MEL): > 100 µM (inactive)
- GI50 (DMS-114): > 100 µM (inactive)
- GI50 (SNB-78): > 100 µM (inactive)
- GI50 (XF498): 0.746 µM (active)
- GI50 (DLD-1): > 100 µM (inactive)
